For test [1], the system named is M-HeLa. The test is described as follows: Induction of mitochondrial membrane potential loss in human HelaM cells assessed as cell population with intact mitochondrial membrane potential at 25 uM by JC-10 staining-based flow cytometric analysis (reference value: 77.48 %). It counts as functional.
The test system of test [2] is M-HeLa. Description: Induction of apoptosis in human HelaM cells assessed as viable cells at 25 uM after 24 hrs by V-FITC/propidium iodide staining-based flow cytometric analysis (reference value: 93.33 %). The conditions noted are these: read-out: Activity. It counts as functional. A general note: In flow cytometry, cells or beads pass a laser one at a time.
Test [3] deals with M-HeLa. Description: Induction of apoptosis in human HelaM cells assessed as viable cells at 10 uM after 24 hrs by V-FITC/propidium iodide staining-based flow cytometric analysis (reference value: 93.33 %). The conditions noted are these: read-out: Activity. It counts as functional.
In test [4] the test system is M-HeLa. Description: Induction of mitochondrial membrane potential loss in human HelaM cells assessed as cell population with mitochondrial membrane potential collapse at 10 uM by JC-10 staining-based flow cytometric analysis (reference value: 22.17 %). In kind it is functional.
In test [5] the test system is M-HeLa. Description: Induction of mitochondrial membrane potential loss in human HelaM cells assessed as cell population with mitochondrial membrane potential collapse at 25 uM by JC-10 staining-based flow cytometric analysis (reference value: 22.17 %). It counts as functional.
For test [6], the system named is M-HeLa. The test is described as follows: Induction of apoptosis in human HelaM cells assessed as late apoptotic cells at 25 uM after 24 hrs by V-FITC/propidium iodide staining-based flow cytometric analysis (reference value: 0.62 %). In kind it is functional.
The test system of test [7] is M-HeLa. Description: Induction of mitochondrial membrane potential loss in human HelaM cells assessed as cell population with intact mitochondrial membrane potential at 10 uM by JC-10 staining-based flow cytometric analysis (reference value: 77.48 %). In kind it is functional.
For test [8], the system named is M-HeLa. Description: Induction of apoptosis in human HelaM cells assessed as necrotic cells at 10 uM after 24 hrs by V-FITC/propidium iodide staining-based flow cytometric analysis (reference value: 4.55 %). In kind it is functional.
Test [9] deals with M-HeLa. The test is described as follows: Induction of apoptosis in human HelaM cells assessed as early apoptotic cells at 10 uM after 24 hrs by V-FITC/propidium iodide staining-based flow cytometric analysis (reference value: 1.5 %). In kind it is functional.
Test [10] concerns M-HeLa. Description: Cytotoxicity against human HelaM cells assessed as reduction in cell viability after 24 hrs by DAPI staining-based fluorescence assay. It counts as functional.
The nature of test [11]: Selectivity index, ratio of IC50 for human chang liver cells to IC50 for human HelaM cells.
In test [12] the test system is M-HeLa. The test is described as follows: Induction of apoptosis in human HelaM cells assessed as late apoptotic cells at 10 uM after 24 hrs by V-FITC/propidium iodide staining-based flow cytometric analysis (reference value: 0.62 %). It counts as functional.
In test [13] the test system is M-HeLa. Description: Induction of apoptosis in human HelaM cells assessed as early apoptotic cells at 25 uM after 24 hrs by V-FITC/propidium iodide staining-based flow cytometric analysis (reference value: 1.5 %). It counts as functional.
Test [14] concerns WI-38. Description: Cytotoxicity against human WI-38 cells assessed as reduction in cell viability after 24 hrs by DAPI staining-based fluorescence assay. The conditions noted are these: WI-38, 24 h.
Test [15] concerns M-HeLa. The test is described as follows: Induction of apoptosis in human HelaM cells assessed as necrotic cells at 25 uM after 24 hrs by V-FITC/propidium iodide staining-based flow cytometric analysis (reference value: 4.55 %). It counts as functional.
The nature of test [16]: Cytotoxicity against human Chang liver cells assessed as reduction in cell viability after 24 hrs by DAPI staining-based fluorescence assay.
Test [17] has as its system MCF7. Description: Cytotoxicity against human MCF7 cells assessed as reduction in cell viability after 24 hrs by DAPI staining-based fluorescence assay. In kind it is functional. The conditions noted are these: MCF7, 24 h.
Test [18] has as its system M-HeLa. Description: Induction of apoptosis in human HelaM cells assessed as increase in Bad level at 10 uM incubated for 24 hrs. It counts as functional, cell-based.
The test system of test [19] is M-HeLa. The test is described as follows: Induction of apoptosis in human HelaM cells assessed as increase in p53 level at 10 uM incubated for 24 hrs. In kind it is functional, cell-based.
For test [20], the system named is M-HeLa. Description: Induction of apoptosis in human HelaM cells assessed as increase in caspase-9 level at 10 uM incubated for 24 hrs. In kind it is functional, cell-based.
Test [21] deals with M-HeLa. Description: Induction of apoptosis in human HelaM cells assessed as increase in Akt level at 10 uM incubated for 24 hrs. It counts as functional, cell-based.
Test [22] deals with M-HeLa. The test is described as follows: Induction of apoptosis in human HelaM cells assessed as increase in JNK level at 10 uM incubated for 24 hrs. It counts as functional, cell-based.
Test [23] relates to M-HeLa. The test is described as follows: Induction of apoptosis in human HelaM cells assessed as increase in Bcl2 level at 10 uM incubated for 24 hrs. In kind it is functional, cell-based.
Test [24] has as its system M-HeLa. Description: Induction of apoptosis in human HelaM cells assessed as increase in caspase-8 level at 10 uM incubated for 24 hrs. In kind it is functional, cell-based.

Activity calls are given as the source filed them. No cut-off for these calls is given here.

From ChEMBL document CHEMBL4665747, “Glycosides and Glycoconjugates of the Diterpenoid Isosteviol with a 1,2,3-Triazolyl Moiety: Synthesis and Cytotoxicity Evaluation” (J Nat Prod, 2020) come the findings set out here.

By IC50 is commonly meant the concentration at which inhibition is half-maximal. Regarding `CC(=O)O[C@@H]1[C@H](OC(C)=O)[C@H](OC(C)=O)CO[C@H]1n1cc(COC(=O)[C@]2(C)CCC[C@@]3(C)[C@@H]4CC[C@@]5(C)C[C@]4(CC[C@@H]32)CC5=O)nn1`, the Activity in test [1] is recorded as 13.46%; in [4], 40.23%; in test [5] it was 86.44%; in [6], 11.59%; in test [7], 59.62%; in test [8], 0.34%. Further, the Activity in [9] is reported as 9.53%; in test [12] it was 8.21%; in test [13] it was 8.57%; in test [15], 0.66%. In addition, the viability at 25 µM in [2] is 79.2%. In [3], the viability at 10 µM stood at 81.9%. Further, the IC50 is 1.7 µM in test [10], 40 µM in [14], above 100 µM in test [16] and above 10 µM in [17]. Also, the “Ratio IC50” value in [11] is on record as above 59.
Regarding `CC(=O)OC[C@H]1O[C@@H](n2cc(COC(=O)[C@]3(C)CCC[C@@]4(C)[C@@H]5CC[C@@]6(C)C[C@]5(CC[C@@H]43)CC6=O)nn2)[C@H](OC(C)=O)[C@@H]1OC(C)=O`, the Activity in test [1] is reported as 9.86%; in test [4], 44.73%; in [5] it was 90.09%; in test [6], 23.66%; in test [7], 55.17%; in [8], 0.03%. The Activity is reported as 11.71% in [9], 20.94% in test [12], 22.44% in test [13] and 0% in test [15]. Moreover, the viability at 25 µM in test [2] amounted to 53.9%. The viability at 10 µM in test [3] is 67.3%. Also, the IC50 in test [10] was 1.9 µM; in test [14], above 100 µM; in [16] it was above 100 µM; in [17], above 10 µM. The “Ratio IC50” value in test [11] was above 53.
Take `CC(=O)OC[C@H]1O[C@@H](n2cc(COC(=O)[C@]3(C)CCC[C@@]4(C)[C@@H]5CC[C@@]6(C)C[C@]5(CC[C@@H]43)CC6=O)nn2)[C@H](OC(C)=O)[C@@H](OC(C)=O)[C@H]1OC(C)=O`: the Activity in test [1] was found to be 15.35%; in test [4], 40.74%; in [5] it was 84.65%; in test [6] it was 11.5%; in test [7], 59.16%; in test [8] it was 0.91%. Moreover, the Activity in test [9] is given as 7.95%; in test [12], 9.09%; in test [13], 9.53%; in test [15] it was 1.26%. The viability at 25 µM in [2] is 77.7%. Further, the outcome in test [18], in test [19], in test [20], in [21], in [22] and in [23] was Active. The outcome in test [24] was Active. Further, the viability at 10 µM in [3] was 82%. Also, the half-inhibitory concentration (IC50) in test [10] was 1.8 µM; in test [14] it was 69.7 µM; in test [16], above 100 µM; in [17] it was above 10 µM. In addition, the “Ratio IC50” value in test [11] was above 56.
Turning to `COc1cccc2c1C(=O)c1c(O)c3c(c(O)c1C2=O)C[C@@](O)(C(=O)CO)C[C@@H]3O[C@H]1C[C@H](N)[C@H](O)[C@H](C)O1` [DOXORUBICIN], in test [16], the IC50 stood at 3 µM.
On to `CC(=O)OC[C@H]1O[C@@H](n2cc(COC(=O)[C@]3(C)CCC[C@@]4(C)[C@@H]5CC[C@@]6(C)C[C@]5(CC[C@@H]43)CC6=O)nn2)[C@H](OC(C)=O)[C@@H](OC(C)=O)[C@@H]1OC(C)=O`, for which the IC50 in test [10] is 8 µM; in test [14] it was 36 µM; in [16], 68.3 µM; in test [17], above 10 µM. Besides, in [11], the “Ratio IC50” value came to 8.5.
